Data from the supplement of paper PMC8967900.

Experiments:
Test in all cases: selective drug sensitivity score (sDSS, relative to normal bone marrow) (sDSS (score)); higher = more potent and effective on the cell line relative to normal bone marrow cells
Settings in all cases: 72 h
P12-ICHIKAWA = tested on: P12-ICHIKAWA
COG-LL-319h = tested on: COG-LL-319h
MHH-CALL-4 = tested on: MHH-CALL-4
NALM-6 = tested on: NALM-6
ALL-SIL = tested on: ALL-SIL
MN-60 = tested on: MN-60
PF-382 = tested on: PF-382
KOPN-8 = tested on: KOPN-8
RCH-ACV = tested on: RCH-ACV
SEM cells = tested on: SEM cells
KARPAS-45 = tested on: KARPAS-45
KASUMI-2 = tested on: KASUMI-2
CCRF-CEM = tested on: CCRF-CEM
JURKAT = tested on: JURKAT
NALL-1 = tested on: NALL-1
CCRF-HSB2 = tested on: CCRF-HSB2
COG-LL-355h = tested on: COG-LL-355h
697 = tested on: 697
MOLT-14 = tested on: MOLT-14
REH = tested on: REH
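Also: ALL cell lines in 384-well plates, five doses spanning 10,000-fold, each plate scaled between vehicle and 100 µmol/L benzalkonium chloride controls, sDSS an adapted area-under-curve metric.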

| SMILES | selective drug sensitivity score (P12-ICHIKAWA) | selective drug sensitivity score (COG-LL-319h) | selective drug sensitivity score (MHH-CALL-4) | selective drug sensitivity score (NALM-6) | selective drug sensitivity score (ALL-SIL) | selective drug sensitivity score (MN-60) | selective drug sensitivity score (PF-382) | selective drug sensitivity score (KOPN-8) | selective drug sensitivity score (RCH-ACV) | selective drug sensitivity score (SEM cells) | selective drug sensitivity score (KARPAS-45) | selective drug sensitivity score (KASUMI-2) | selective drug sensitivity score (CCRF-CEM) | selective drug sensitivity score (JURKAT) | selective drug sensitivity score (NALL-1) | selective drug sensitivity score (CCRF-HSB2) | selective drug sensitivity score (COG-LL-355h) | selective drug sensitivity score 697 | selective drug sensitivity score (MOLT-14) | selective drug sensitivity score (REH) |
| --- | --- | --- | --- | --- | --- | --- | --- | --- | --- | --- | --- | --- | --- | --- | --- | --- | --- | --- | --- | --- |
| COc1cc2ncnc(Nc3cccc(Cl)c3F)c2cc1OC(=O)N1CCN(C)C[C@H]1C [AZD3759] (top concentration 1000 nM) | -0.04 | 0.96 | -0.04 | -0.04 | 5.76 | -0.04 | -0.04 | -0.04 | -0.04 | -0.04 | -0.04 | -0.04 | -0.04 | -0.04 | 0.86 | -0.04 | -0.04 | -0.04 | -0.04 | 0.66 |
| C[C@]12CC[C@H](O)CC1=CC[C@@H]1[C@@H]2CC[C@]2(C)C(c3cccnc3)=CC[C@@H]12 [Abiraterone] (top concentration 5000 nM) | -0.12 | 0.08 | 0.28 | -0.12 | -0.12 | -0.12 | -0.12 | 1.78 | -0.02 | -0.12 | -0.12 | -0.12 | -0.12 | 0.18 | 3.08 | -0.12 | -0.12 | -0.12 | -0.12 | -0.12 |
| CC#CC(=O)N1CCC[C@H]1c1nc(-c2ccc(C(=O)Nc3ccccn3)cc2)c2c(N)nccn12 [Acalabrutinib] (top concentration 1000 nM) | -0.1 | 0 | 7.4 | -0.1 | -0.1 | -0.1 | 0 | -0.1 | 1.8 | 3.2 | 0.7 | -0.1 | 0.8 | 0 | -0.1 | -0.1 | -0.1 | 0.8 | -0.1 | -0.1 |
| CCc1cc2c(cc1N1CCC(N3CCOCC3)CC1)C(C)(C)c1[nH]c3cc(C#N)ccc3c1C2=O [Alectinib] (top concentration 1000 nM) | -0.22 | 2.48 | -0.12 | 1.28 | -0.22 | 0.98 | -0.22 | 1.38 | 4.98 | 0.58 | 1.28 | 1.08 | 0.18 | -0.22 | -0.22 | -0.22 | -0.02 | 2.48 | 1.08 | -0.02 |
| Oc1ncnc2[nH]ncc12 [Allopurinol] (top concentration 10000 nM) | -0.64 | 3.56 | -0.64 | -0.04 | -0.14 | -0.64 | -0.64 | -0.64 | -0.64 | -0.54 | -0.24 | -0.64 | -0.24 | -0.64 | -0.64 | -0.64 | -0.64 | -0.64 | -0.64 | -0.64 |
| COc1cc(NS(C)(=O)=O)ccc1Nc1c2ccccc2nc2ccccc12 [Amsacrine] (top concentration 10000 nM) | 13.5 | 18.2 | 13.2 | 10.7 | 10.2 | -1.84 | 10.9 | 18.3 | 24.7 | 12.8 | 1.76 | 21.7 | 15.1 | 7.96 | 5.66 | 22.5 | 11 | 20.6 | 18.8 | 19.1 |
| O=C1CN2Cc3c(ccc(Cl)c3Cl)N=C2N1 [Anagrelide] (top concentration 10000 nM) | 0 | 0 | 0.6 | 0 | 2.8 | 0 | 0 | 3.4 | 0 | 0 | 0 | 0 | 0 | 0 | 1.1 | 0 | 4.6 | 0 | 0 | 0 |
| N#CC(c1ccnc(OCc2ccc(CN3CCOCC3)cc2)n1)c1nc2ccccc2s1 (stereo not given) [Bentamapimod] (top concentration 10000 nM) | 2.94 | -0.06 | -0.46 | 2.44 | 2.34 | 2.44 | 3.84 | 5.64 | 4.44 | 3.24 | 5.54 | -0.46 | 3.94 | 3.94 | 1.14 | 4.04 | 1.84 | 5.14 | 2.74 | 6.54 |
| CCNC(=O)CCC/C=C\C[C@@H]1[C@@H](/C=C/[C@@H](O)CCc2ccccc2)[C@H](O)C[C@@H]1O [Bimatoprost] (top concentration 5500 nM) | 0 | 0 | 0.5 | 0 | 0 | 0 | 0 | 0 | 0 | 0 | 0 | 2.5 | 0 | 0 | 0 | 0 | 0 | 0 | 0 | 1.4 |
